Experimental findings from US11629171B2, “Beta-hairpin peptidomimetics” (POLYPHOR AG, priority 2017, dated 2023) are described below.

The MIC is the lowest concentration found to suppress growth. High values mean a need for much substance, low ones inhibition by little substance.

The subject of data set [1] is Acinetobacter baumannii 872842. The format is cell-based. As to conditions: 872842. In outline:
(§1)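 MIC in μg/mL, read as no visible growth after 18-20 hours at 35° C. Peptides were serially diluted two-fold in MH-II broth plus P-80 (0.002% final, v/v) and inoculated at about 10^6 CFU/mL following the CLSI broth microdilution standard.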

The subject of data set [2] is Acinetobacter baumannii DSM 30008. The format is cell-based. As to conditions: DSM 30008. Put shortly:
as §1

Data set [3] concerns Enterobacter cloacae 848840. The format is cell-based. Particulars: 848840. In outline:
as §1

The subject of a further data set is Escherichia coli 926415. It counts as cell-based. As to conditions: 926415. In outline:
as §1

Data set [4] deals with Escherichia coli ATCC 25922. It counts as cell-based. Particulars: ATCC 25922. Put shortly:
as §1

In data set [5] the test system is Klebsiella pneumoniae 968733. The format is cell-based. As to conditions: 968733. In outline:
as §1

In data set [6] the test system is Klebsiella pneumoniae SSI #3010. It counts as cell-based. As to conditions: SSI #3010. In outline: as §1
In data set [7] the test system is Pseudomonas aeruginosa ATCC 27853. The format is cell-based. Particulars: ATCC 27853. Put shortly:
as §1

In data set [8] the test system is human red blood cells (hRBC). Description: Hemolysis. The format is cell-based. Particulars: red cells of human, 1 h, 200. In outline: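 Hemoglobin release from PBS-washed hRBC at 20% (v/v), incubated 1 h at 37° C with peptides at 200 μg/mL, is measured at 540 nm. Values are blank corrected and given as a fraction of Triton X-100 lysis × 100%.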
The test system of a further data set is male ICR mice. Description: Tolerability in a mouse model (Maximum Tolerated Dose assay). It counts as in vivo. As to conditions: groups of 3. The method, then:
The tolerability of the peptides was tested in a mouse model at Pharmacology Discovery Services Taiwan Ltd, Taipei, Taiwan. The peptides were administered subcutaneously (s.c.) at 30 mg/kg or 40 mg/kg, respectively; twice at a 12-hr interval, for assessment of possible adverse effects in the Maximum Tolerated Dose (MTD) assay in male ICR (Institute of Cancer Research) mice. The peptides were dissolved in 0.9% NaCl at the concentrations either of 6 or 8 mg/mL, respectively, based on the free base molecular weight. The pH values of dosing solutions were adjusted to 6.5-7.6 before s.c. administration. A dosing volume at 5 mL/kg and a concentration of 6 or 8 mg/mL, respectively, was applied. The fresh prepared stock solution were stored at 4° C. during the study. Male ICR mice weighing 23±3 g were provided by BioLasco Taiwan (under Charles River Laboratories Licensee). Animals were acclimated for 3 days prior to use and were confirmed to be in good health. The peptides were administered s.c. at 30 mg/kg or 40 mg/kg, respectively, twice at a 12-hr interval, to groups of 3 ICR male mice and observed for the presence of acute toxic symptoms (mortality, convulsions, tremors, muscle relaxation, sedation, etc.) and autonomic effects (diarrhea, salivation, lacrimation, vasodilation, piloerection, etc.) during the first 30 min. The peptides were administered again at a 12-hr (two total doses) interval, following the first dose. The animals were then observed again for the presence of acute toxic symptoms and autonomic effects during the first 30 min.

[9] abbreviates: 2 × 40 mg/kg s.c. at a 12-hr interval.
Where [10] appears, read: 2 × 30 mg/kg s.c. at a 12-hr interval.

Values after ≈ are worked out from the molar mass of the structure shown. Where a SMILES comes first, the peptide text is derived from it. Bridges are numbered along the chain shown (N, C = ends). Roman numbers before positions name the chains, in order. [ ]: non-standard residue; d: D form. The star is where a group is joined. Tle = CC(C)(C)[C@H](N)C(=O)O; dDab = NCC[C@@H](N)C(=O)O; hSer = N[C@@H](CCO)C(=O)O; NHCH(CH2OH)2 = OCC(CO)N*; Dab = NCC[C@H](N)C(=O)O; Abu = CC[C@H](N)C(=O)O; Dap = NC[C@H](N)C(=O)O

For the compound `CC[C@H](C)[C@@H]1NC(=O)[C@H](CO)NC(=O)[C@H](Cc2c[nH]c3ccccc23)NC(=O)[C@H](CO)NC(=O)[C@@H](CCN)NC(=O)[C@H](CCC(=O)N[C@@H](CCN)C(=O)N[C@H](C(=O)N[C@@H](CN)C(=O)N[C@H]2CCNC(=O)[C@H]([C@@H](C)O)NC(=O)[C@H](CCN)NC(=O)[C@H](CCN)NC(=O)[C@H]([C@@H](C)O)NC(=O)[C@@H](CC(C)C)NC(=O)[C@H](CCN)NC2=O)[C@@H](C)O)NC(=O)[C@H](CCN)NC(=O)[C@H](Cc2ccc(O)cc2)NC(=O)[C@@H](NC(=O)[C@@H](NC(C)=O)C(C)C)CSSC[C@@H](C(=O)N[C@@H](CO)C(=O)N[C@H](C)C(N)=O)NC1=O` [Ex. 380] (I: Ac-VCY[Dab]E[dDab]SWSICS[dA]-NH2 / II: [Dab]T[Dap][Dab][Dab][dL]T[Dab][Dab]T; disulfide I:2-I:11; amide I:5-II:N; lactam II:4-II:C), the MIC in data set [1] turned out to be 0.25 µg/mL (≈ 0.101 µM); in data set [3], 0.125 µg/mL (≈ 0.0506 µM); in the data set with Escherichia coli 926415, 0.125 µg/mL (≈ 0.0506 µM); in data set [5], 0.5 µg/mL (≈ 0.202 µM). Further, the “Acinetobacter baumannii DSM 30008 MIC” value in [2] is 0.0625 µg/mL. Also, in data set [4], the “Escherichia coli ATCC 25922 MIC” value stood at 0.03125 µg/mL. Moreover, the “Klebsiella pneumoniae SSI #3010 MIC” value in data set [6] was 0.0625 µg/mL. Further, in [7], the “Pseudomonas aeruginosa ATCC 27853 MIC” value is 0.125 µg/mL. In [8], the “Hemolysis at 200 μg/mL” value is given as less than 1%. The Mortality and dose in the data set on male ICR mice (setting [9]) is reported as 0/3 died at 2 × 40 mg/kg.

In the case of `CC[C@@H]1NC(=O)[C@@H](CC(C)C)NC(=O)[C@H](CCN)NC(=O)[C@@H](NC(=O)[C@H](CN)NC(=O)[C@@H](NC(=O)[C@H](CCN)NC(=O)CC[C@@H]2NC(=O)[C@H](CCN)NC(=O)[C@H](Cc3ccc(O)cc3)NC(=O)[C@@H](NC(=O)[C@@H](NC(C)=O)C(C)C)CSSC[C@@H](C(=O)N[C@@H](CO)C(N)=O)NC(=O)[C@H](C(C)C)NC(=O)[C@H](CCN)NC(=O)[C@H](Cc3c[nH]c4ccccc34)NC(=O)[C@H](CO)NC(=O)[C@@H](CCN)NC2=O)[C@@H](C)O)CCNC(=O)[C@H]([C@@H](C)O)NC(=O)[C@H](CCN)NC(=O)[C@H](CCN)NC1=O` [Ex. 300] (I: Ac-VCY[Dab]E[dDab]SW[Dab]VCS-NH2 / II: [Dab]T[Dap][Dab][Dab][dL][Abu][Dab][Dab]T; disulfide I:2-I:11; amide I:5-II:N; lactam II:4-II:C), the MIC came out at 1 µg/mL (≈ 0.419 µM) in [1], 0.125 µg/mL (≈ 0.0524 µM) in data set [3], 0.25 µg/mL (≈ 0.105 µM) against Escherichia coli 926415 and 2 µg/mL (≈ 0.839 µM) in [5]. In addition, the “Acinetobacter baumannii DSM 30008 MIC” value in [2] came out at 0.125 µg/mL. Besides, the “Escherichia coli ATCC 25922 MIC” value in data set [4] was 0.125 µg/mL. For the same compound, the “Klebsiella pneumoniae SSI #3010 MIC” value in data set [6] worked out at 0.0625 µg/mL. The “Pseudomonas aeruginosa ATCC 27853 MIC” value in data set [7] was 0.125 µg/mL. Further, in data set [8], the “Hemolysis at 200 μg/mL” value was less than 1%. Besides, in the data set on male ICR mice (setting [9]), the Mortality and dose is recorded as 0/3 died at 2 × 40 mg/kg.

`CC(=O)N[C@@H](Cc1ccc(O)cc1)C(=O)N[C@H]1CSSC[C@@H](C(=O)NC(CO)CO)NC(=O)[C@H](C(C)(C)C)NC(=O)[C@H](CO)NC(=O)[C@H](Cc2c[nH]c3ccccc23)NC(=O)[C@H](CCO)NC(=O)[C@@H](CCN)NC(=O)[C@H](CCC(=O)N[C@@H](CCN)C(=O)N[C@H](C(=O)N[C@@H](CCN)C(=O)N[C@H]2CCNC(=O)[C@H]([C@@H](C)O)NC(=O)[C@H](CCN)NC(=O)[C@H](CCN)NC(=O)[C@H](CC(C)C)NC(=O)[C@@H](CC(C)C)NC(=O)[C@H](CCN)NC2=O)[C@@H](C)O)NC(=O)[C@H](CCN)NC(=O)[C@H](C(C)C)NC1=O` [Ex. 96] (I: Ac-YCV[Dab]E[dDab][hSer]WS[Tle]C-{NHCH(CH2OH)2} / II: [Dab]T[Dab][Dab][Dab][dL]L[Dab][Dab]T; disulfide I:2-I:11; amide I:5-II:N; lactam II:4-II:C): the MIC was 0.5 µg/mL (≈ 0.206 µM) in data set [1]; 0.125 µg/mL (≈ 0.0515 µM) in [2]; 8 µg/mL (≈ 3.3 µM) in data set [3]; 0.5 µg/mL (≈ 0.206 µM) in the data set on Escherichia coli 926415; 0.0625 µg/mL (≈ 0.0257 µM) in [4]; 0.125 µg/mL (≈ 0.0515 µM) in data set [5]. Moreover, the MIC in [6] and in data set [7] was 0.125 µg/mL (≈ 0.0515 µM) in each case. Also, the “Hemolysis at 200 μg/mL” value in data set [8] is listed as less than 1%. Besides, in the data set with male ICR mice (setting [10]), the Mortality and dose is recorded as 0/3 died at 2 × 30 mg/kg.

With `CC(=O)N[C@H](C(=O)N[C@H]1CSSC[C@@H](C(=O)N[C@@H](CO)C(N)=O)NC(=O)[C@H](C(C)C)NC(=O)[C@H](CO)NC(=O)[C@H](Cc2c[nH]c3ccccc23)NC(=O)[C@H](CCO)NC(=O)[C@@H](CCN)NC(=O)[C@H](CCC(=O)N[C@@H](CCN)C(=O)N[C@H](C(=O)N[C@@H](CN)C(=O)N[C@H]2CCNC(=O)[C@H]([C@@H](C)O)NC(=O)[C@H](CCN)NC(=O)[C@H](CCN)NC(=O)[C@H]([C@@H](C)O)NC(=O)[C@@H](CC(C)C)NC(=O)[C@H](CCN)NC2=O)[C@@H](C)O)NC(=O)[C@H](CCN)NC(=O)[C@H](Cc2ccc(O)cc2)NC1=O)C(C)C` [Ex. 343] (I: Ac-VCY[Dab]E[dDab][hSer]WSVCS-NH2 / II: [Dab]T[Dap][Dab][Dab][dL]T[Dab][Dab]T; disulfide I:2-I:11; amide I:5-II:N; lactam II:4-II:C), the minimum inhibitory concentration (MIC) is 0.25 µg/mL (≈ 0.104 µM) in data set [1], 0.125 µg/mL (≈ 0.0521 µM) in data set [3], 0.25 µg/mL (≈ 0.104 µM) against Escherichia coli 926415 and 0.5 µg/mL (≈ 0.208 µM) in [5]. Also, the “Acinetobacter baumannii DSM 30008 MIC” value in data set [2] is 0.0625 µg/mL. Further, the “Escherichia coli ATCC 25922 MIC” value in [4] amounted to 0.03125 µg/mL. Besides, the “Klebsiella pneumoniae SSI #3010 MIC” value in data set [6] was determined as 0.0625 µg/mL. For the same compound, the “Pseudomonas aeruginosa ATCC 27853 MIC” value in [7] worked out at 0.125 µg/mL. Also, in data set [8], the “Hemolysis at 200 μg/mL” value is reported as less than 1%. The Mortality and dose in the data set with male ICR mice (setting [9]) is 0/3 died at 2 × 40 mg/kg.

As for `CC(=O)N[C@H](C(=O)N[C@H]1CSSC[C@@H](C(=O)N[C@@H](CO)C(N)=O)NC(=O)[C@H](C(C)(C)C)NC(=O)[C@H](CO)NC(=O)[C@H](Cc2c[nH]c3ccccc23)NC(=O)[C@H](CO)NC(=O)[C@@H](CCN)NC(=O)[C@H](CCC(=O)N[C@@H](CCN)C(=O)N[C@H](C(=O)N[C@@H](CN)C(=O)N[C@H]2CCNC(=O)[C@H]([C@@H](C)O)NC(=O)[C@H](CCN)NC(=O)[C@H](CCN)NC(=O)[C@H](CC(C)C)NC(=O)[C@@H](CC(C)C)NC(=O)[C@H](CCN)NC2=O)[C@@H](C)O)NC(=O)[C@H](CCN)NC(=O)[C@H](Cc2ccc(O)cc2)NC1=O)C(C)C` [Ex. 114] (I: Ac-VCY[Dab]E[dDab]SWS[Tle]CS-NH2 / II: [Dab]T[Dap][Dab][Dab][dL]L[Dab][Dab]T; disulfide I:2-I:11; amide I:5-II:N; lactam II:4-II:C), the minimal inhibitory concentration (MIC) in data set [1] amounted to 0.03125 µg/mL (≈ 0.013 µM); in data set [2] it was 0.0625 µg/mL (≈ 0.0259 µM); in data set [3], 0.0625 µg/mL (≈ 0.0259 µM); in the data set with Escherichia coli 926415 it was 0.0625 µg/mL (≈ 0.0259 µM); in data set [4], 0.03125 µg/mL (≈ 0.013 µM); in [5], 0.0625 µg/mL (≈ 0.0259 µM). In addition, the MIC in data set [6] came out at 0.0625 µg/mL (≈ 0.0259 µM); in [7] it was 0.125 µg/mL (≈ 0.0518 µM). The “Hemolysis at 200 μg/mL” value in data set [8] is listed as less than 1%. Besides, in the data set on male ICR mice (setting [10]), the Mortality and dose is recorded as 0/3 died at 2 × 30 mg/kg.
